# What was measured:
# [1] = test system: 5/6 nephrectomy rat model; assay: Functional and structural renal dysfunction in 5/6 nephrectomized rats; type: in vivo; conditions: 4 weeks; for End organ injury marker concentration in the urine: hFABP / End organ injury marker concentration in the urine: hFABP per creatinine: ELISA; for Kidney injury marker-1 [gene expression] / Lipocalin-2 [gene expression] / Osteopontin [gene expression]: renal cortex
# Description: (§1) B-3. Effects of Partial A1 Agonists on Renal and Cardiac Function in 5/6 Nephrectomized Rats (Example 1 for Chronic Kidney Disorder)
# (§2) 5/6 nephrectomy in the rat, in which one kidney and the renal cortex of the second kidney are surgically removed (=5/6 of functional kidney tissue) is an established animal model for interstitial renal fibrosis and chronic renal insufficiency [C. Fleck et al., “Suitability of 5/6 nephrectomy (5/6NX) for the induction of interstitial renal fibrosis in rats Influence of sex, strain, and surgical procedure”, Exp. Tox. Pathology 2006, 57, 195-205]. The model is characterized by progressive proteinuria, disturbed tubular electrolyte transport, a reduced glomerular filtration rate, an increase in urinary output, interstitial fibrosis with reactively occurring lymphocyte infiltrates, glomerulosclerosis and tubular atrophy. The level of proteinuria is a specific index of the renal function prognosis: the higher the proteinuria, the greater is the functional and structural kidney injury and therefore progression of chronic to terminal renal insufficiency (uraemia). During monitoring of therapy, e.g. with the ACE inhibitor enalapril, the course of proteinuria provides information on the functional and structural response to the therapy and thus on the renal function prognosis. As a result of the renal insufficiency and accumulation of umemic toxins, in the animals there is secondary development of a umemic cardiomyopathy, depending on the severity associated with hypertension, increased heart rate, reduced parasympathetic tone, myocardial, left-ventricular hypertrophy and fibrosis, diastolic dysfunction and an increased prevalence of arrhythmias [Svilerova et al. 2010 Physiol Res 59: S81-S88).
# (§3) Procedure: male Wistar:WU rats (210-250 g) from Charles River had the left kidney and the renal cortex of the right kidney removed (=SNX) in one session; sham-operated rats served as control group (=SOP). The following groups, each with 12 rats per group, were investigated:
# (§4) Group 2 SNX+placebo (60 g glycerol+100 g water+969 g PEG-400)
# (§5) Group 3 SNX+10 mg/kg body weight/day enalapril (reference therapy, in the drinking water)
# (§6) Group 4 SNX+0.1 mg/kg body weight/day partial A1 agonist EXAMPLE 1, p.o. in placebo
# (§7) Group 5 SNX+1.0 mg/kg body weight/day partial A1 agonist EXAMPLE 1, p.o. in placebo
# (§8) Group 6 SNX+0.3 mg/kg body weight/day partial A1 agonist EXAMPLE 4, p.o. in placebo
# (§9) Group 7 SNX+3.0 mg/kg body weight/day partial A1 agonist EXAMPLE 4, p.o. in placebo
# (§10) Three weeks after 5/6 nephrectomy, the rats developed manifest proteinuria, from this time point the rats were treated for a further four weeks corresponding to the groups stated above. At the end of the protocol, the following samples were obtained/measurements were carried out: eight-hour urine collection with determination of the concentration of hFABP in the urine by ELISA (Rat/Mouse h-FABP ELISA, Hycultbiotech), as marker for end organ damage, invasive measurement of the isoprenaline-induced increase (cumulatively 12.5 ng-250 ng/kg isoprenaline, i.v.) in systolic and diastolic left ventricular function, and TaqMan analyses of renal injury markers in the renal cortex.
# [2] = test system: 5/6 nephrectomy rat model; assay: Left-ventricular diastolic dysfunction under isoprenaline infusion in 5/6 nephrectomized rats; type: in vivo; conditions: 4 weeks
# Description: as §1, §2, §3, §4, §5, §6, §7, §8, §9, §10
# [3] = Group 4: SNX + 0.1 mg/kg body weight/day p.o.
# [4] = Group 5: SNX + 1.0 mg/kg body weight/day p.o.
compound,measurement,setting,value
"N#Cc1c(N)nc(SCc2csc(-c3ccc(Cl)cc3)n2)c(C#N)c1-c1ccc(OCCO)cc1 [EXAMPLE 1, 2-Amino-6-({[2-(4-chlorophenyl)-1,3-thiazol-4-yl]methyl}sulphanyl)-4-[4-(2-hydroxyethoxy)phenyl]pyridine-3,5-dicarbonitrile]",P-creatinine,[1]; [3],66 ± 1 µmol/L
same,P-urea,[1]; [3],11 ± 0.5 mmol/L
same,U-creatinine,[1]; [3],2.4 ± 0.3 μmol/ml urine/kg BW/h
same,U-protein,[1]; [3],1.07 ± 0.28 μmol/ml urine/kg BW/h
same,U-sodium,[1]; [3],18 ± 3 μmol/ml urine/kg BW/h
same,U-urea,[1]; [3],260 ± 31 μmol/ml urine/kg BW/h
same,Urine volume,[1]; [3],2.2 ± 0.1 ml/kg BW/h
same,End organ injury marker concentration in the urine: hFABP,[1]; [3],1088 ± 159 pg hFABP/ml urine/h
same,End organ injury marker concentration in the urine: hFABP per creatinine,[1]; [3],194 ± 36 pg hFABP/μmol creatinine
same,Kidney injury marker-1 [gene expression],[1]; [3],60 ± 17 rel. expression
same,Lipocalin-2 [gene expression],[1]; [3],307 ± 51 rel. expression
same,Osteopontin [gene expression],[1]; [3],6008 ± 1209 rel. expression
same,P-creatinine,[1]; [4],63 ± 1 µmol/L
same,P-urea,[1]; [4],11 ± 0.3 mmol/L
same,U-creatinine,[1]; [4],2.3 ± 0.3 μmol/ml urine/kg BW/h
same,U-protein,[1]; [4],0.75 ± 0.14 μmol/ml urine/kg BW/h
same,U-sodium,[1]; [4],31 ± 3 μmol/ml urine/kg BW/h
same,U-urea,[1]; [4],264 ± 35 μmol/ml urine/kg BW/h
same,Urine volume,[1]; [4],2.0 ± 0.2 ml/kg BW/h
same,End organ injury marker concentration in the urine: hFABP,[1]; [4],1136 ± 229 pg hFABP/ml urine/h
same,End organ injury marker concentration in the urine: hFABP per creatinine,[1]; [4],175 ± 39 pg hFABP/μmol creatinine
same,Kidney injury marker-1 [gene expression],[1]; [4],62 ± 13 rel. expression
same,Lipocalin-2 [gene expression],[1]; [4],313 ± 65 rel. expression
same,Osteopontin [gene expression],[1]; [4],5476 ± 1131 rel. expression
same,left-ventricular pressure decrease as a function of time,"[2]; isoprenaline 0 ng/kg body weight, Group 4: SNX + 0.1 mg/kg body weight/day p.o.",6769 ± 206 mmHg/s
same,left-ventricular pressure decrease as a function of time,"[2]; isoprenaline 0 ng/kg body weight, Group 5: SNX + 1.0 mg/kg body weight/day p.o.",6516 ± 334 mmHg/s
same,left-ventricular pressure decrease as a function of time,"[2]; isoprenaline 12.5 ng/kg body weight, Group 4: SNX + 0.1 mg/kg body weight/day p.o.",7990 ± 208 mmHg/s
same,left-ventricular pressure decrease as a function of time,"[2]; isoprenaline 12.5 ng/kg body weight, Group 5: SNX + 1.0 mg/kg body weight/day p.o.",7126 ± 283 mmHg/s
same,left-ventricular pressure decrease as a function of time,"[2]; isoprenaline 25 ng/kg body weight, Group 4: SNX + 0.1 mg/kg body weight/day p.o.",8283 ± 222 mmHg/s
same,left-ventricular pressure decrease as a function of time,"[2]; isoprenaline 25 ng/kg body weight, Group 5: SNX + 1.0 mg/kg body weight/day p.o.",7309 ± 285 mmHg/s
same,left-ventricular pressure decrease as a function of time,"[2]; isoprenaline 50 ng/kg body weight, Group 4: SNX + 0.1 mg/kg body weight/day p.o.",8913 ± 282 mmHg/s
same,left-ventricular pressure decrease as a function of time,"[2]; isoprenaline 50 ng/kg body weight, Group 5: SNX + 1.0 mg/kg body weight/day p.o.",7990 ± 213 mmHg/s
same,left-ventricular pressure decrease as a function of time,"[2]; isoprenaline 100 ng/kg body weight, Group 4: SNX + 0.1 mg/kg body weight/day p.o.",9701 ± 300 mmHg/s
same,left-ventricular pressure decrease as a function of time,"[2]; isoprenaline 100 ng/kg body weight, Group 5: SNX + 1.0 mg/kg body weight/day p.o.",8722 ± 183 mmHg/s
same,left-ventricular pressure decrease as a function of time,"[2]; isoprenaline 250 ng/kg body weight, Group 4: SNX + 0.1 mg/kg body weight/day p.o.",9721 ± 307 mmHg/s
same,left-ventricular pressure decrease as a function of time,"[2]; isoprenaline 250 ng/kg body weight, Group 5: SNX + 1.0 mg/kg body weight/day p.o.",9028 ± 226 mmHg/s

# — US20160311812A1, “ADENOSINE A1 AGONISTS AS MEDICAMENTS FOR KIDNEY DISORDERS” (BAYER PHARMA AKTIENGESELLSCHAFT, priority 2013, published 2016)
